Here are results for four compounds from PMC4278362 (Bioorganic & medicinal chemistry, 2014).

pKi: −log10 of the molar value. Converted amounts (≈) assume the structure as drawn. Like-named read-outs stand apart in the source and are kept apart here.

Assay [1] relates to B. anthracis Sterne. Conditions: cited from earlier work.
The test system of assay [2] is B. anthracis Sterne. The experiment in a line: microbe, parasite or virus in culture. Type of assay: cell-based, Bacillus anthracis. To be noted: for MIC: Bacillus anthracis, read-out: MIC B. anthracis Sterne.
Assay [3] has as its target B anthracis DHFR (Bacillus anthracis, UniProt Q81R22). The experiment in a line: biochemical. To be noted: Ki ± SEM B anthracis DHFR.

Chain of B anthracis DHFR (Q81R22 1-162): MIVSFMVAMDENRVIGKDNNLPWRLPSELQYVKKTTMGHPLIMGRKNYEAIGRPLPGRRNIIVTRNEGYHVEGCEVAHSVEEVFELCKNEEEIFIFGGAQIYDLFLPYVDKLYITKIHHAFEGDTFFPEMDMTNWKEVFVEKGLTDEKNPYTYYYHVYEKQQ

In the case of `COc1cc(Cc2cnc(N)nc2N)cc(OC)c1OC` [TMP, Trimethoprim], the “MIC B. anthracis Sterne” value in assay [1] is above 2048 µg/mL. For the compound `CCCC1c2ccccc2C=NN1C(=O)/C=C/c1cc(Cc2cnc(N)nc2N)cc(OC(=O)c2ccccc2)c1OC` (racemic) [Compound 29, (±)-(E)-5-[(2,4-Diamino-5-pyrimidinyl)methyl]-2-methoxy-3-[3-oxo-3-(1-propyl-2(1H)-phthalazinyl)-1-propen-1-yl]phenyl benzoate], in assay [2], the “MIC B. anthracis Sterne” value lay in the range of 4 to 16 µg/mL and the MIC was in the range of 2 to 16 µg/mL (≈ 3.47 to 27.7 µM). For the compound `CCOc1cc(Cc2cnc(N)nc2N)cc(/C=C/C(=O)N2N=Cc3ccccc3C2C=C(C)C)c1OCC` (racemic) [Compound 19b, (±)-(E)-3-{5-[(2,4-Diamino-5-pyrimidinyl)methyl]-2,3-diethoxyphenyl}-1-(1-isobutenyl-2(1H)-phthalazinyl)-2-propen-1-one], the MIC in assay [2] fell in the range of 1 to 2 µg/mL (≈ 1.9 to 3.8 µM). Broadly, the pKi is the negative decadic logarithm of the Ki, by convention in mol/L. Higher therefore signals a low Ki. Compound `CCCC1c2ccccc2C=NN1C(=O)/C=C/c1cc(Cc2cnc(N)nc2N)cc(OCc2ccc(C(F)(F)F)cc2)c1OC` (racemic) [Compound 34, (±)-(E)-3-{5-[(2,4-Diamino-5-pyrimidinyl)methyl]-2-methoxy-3-[(4-(trifluoromethyl)benzyl)oxy]phenyl}-1-(1-propyl-2(1H)-phthalazinyl)-2-propen-1-one] showed a negative-log Ki (pKi) in assay [3] below 5.66.
